Test results as given in ChEMBL document CHEMBL1156397, “A benzylisoquinoline alkaloid from Doryphora sassafras” (J Nat Prod, 2001).

Molecular target: Kappa-type opioid receptor (Cavia porcellus) (UniProt P41144)
Test: Displacement of [3H]U69593 from kappa opioid receptor in guinea pig brain membrane at 100 uM by Betaplate liquid scintillation counter
Format: cell membranes

Chain of Kappa-type opioid receptor (Cavia porcellus) (P41144 whole entry): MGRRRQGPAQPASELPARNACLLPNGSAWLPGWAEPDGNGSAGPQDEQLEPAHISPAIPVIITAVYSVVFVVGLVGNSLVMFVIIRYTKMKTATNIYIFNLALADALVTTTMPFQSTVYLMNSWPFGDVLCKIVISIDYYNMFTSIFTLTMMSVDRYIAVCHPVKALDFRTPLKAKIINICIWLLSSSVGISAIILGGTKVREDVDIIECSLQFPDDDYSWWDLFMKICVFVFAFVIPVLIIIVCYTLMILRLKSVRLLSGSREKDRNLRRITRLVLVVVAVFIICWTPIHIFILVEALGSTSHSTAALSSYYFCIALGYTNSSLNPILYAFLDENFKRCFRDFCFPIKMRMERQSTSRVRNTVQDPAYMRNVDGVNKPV

- Activity: 50%
Structure (SMILES): COc1ccc(Cc2c3cc4c(cc3cc[n+]2C)OCO4)cc1
